Patent publication US20170190671A1, “BIS(ARYL)CATECHOL DERIVATIVES AS HERBICIDES” (E I DU PONT DE NEMOURS AND COMPANY, priority 2014, published 2017)

Experiments:
Assay in all cases: Test C preemergence
Type in all cases: in vivo
[1] = system: winter wheat (Triticum aestivum); settings: Triticum aestivum, pre-emergence, 336 h, preemergence, scale 0 to 100, read-out: Plant response rating, Wheat
Outline: (§1)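 Visual ratings (0 none to 100 complete control) were made 13 to 15 days after treatment, relative to controls. Test chemicals, formulated in a non-phytotoxic solvent mixture with surfactant, were applied in the greenhouse preemergence to seeded loam-sand soil or postemergence to plants 2 to 18 cm tall.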

[2] = system: ragweed (common ragweed, Ambrosia elatior); settings: Ambrosia artemisiifolia, pre-emergence, 336 h, preemergence, scale 0 to 100, read-out: Plant response rating, Ragweed
Outline: as §1

[3] = system: Italian ryegrass (Lolium multiflorum); settings: Lolium multiflorum, pre-emergence, 336 h, preemergence, scale 0 to 100, read-out: Plant response rating, Ryegrass, Italian
Outline: as §1

[4] = system: yellow nutsedge (Cyperus esculentus); settings: Cyperus, pre-emergence, 336 h, preemergence, scale 0 to 100, read-out: Plant response rating, Nutsedge, Yellow
Outline: as §1

soybean (Glycine max) = settings: Glycine max, pre-emergence, preemergence, scale 0 to 100, read-out: Plant response rating, Soybean
Outline: as §1

[5] = system: blackgrass (Alopecurus myosuroides); settings: Alopecurus myosuroides, pre-emergence, 336 h, preemergence, scale 0 to 100, read-out: Plant response rating, Blackgrass
Outline: as §1

[6] = system: velvetleaf (Abutilon theophrasti); settings: Abutilon theophrasti, pre-emergence, preemergence, scale 0 to 100, read-out: Plant response rating, Velvetleaf
Outline: as §1

[7] = system: large (Lg) crabgrass (Digitaria sanguinalis); settings: Digitaria sanguinalis, pre-emergence, 336 h, preemergence, scale 0 to 100, read-out: Plant response rating, Crabgrass, Large
Outline: as §1

[8] = system: galium (catchweed bedstraw, Galium aparine); settings: Galium, pre-emergence, 336 h, preemergence, scale 0 to 100, read-out: Plant response rating, Galium
Outline: as §1

[9] = system: giant foxtail (Setaria faberii); settings: Setaria faberi, pre-emergence, 336 h, preemergence, scale 0 to 100, read-out: Plant response rating, Foxtail, Giant
Outline: as §1

[10] = system: oilseed rape (Brassica napus); settings: Brassica napus, pre-emergence, preemergence, scale 0 to 100, read-out: Plant response rating, Oilseed Rape
Outline: as §1

[11] = system: barnyardgrass (Echinochloa crus-galli); settings: Echinochloa crus-galli, pre-emergence, preemergence, scale 0 to 100, read-out: Plant response rating, Barnyardgrass
Outline: as §1

corn (Zea mays) = settings: Zea mays, pre-emergence, 336 h, preemergence, scale 0 to 100
Outline: as §1

[12] = system: waterhemp (common waterhemp, Amaranthus rudis); settings: Amaranthus tuberculatus, pre-emergence, preemergence, scale 0 to 100, read-out: Plant response rating, Waterhemp
Outline: as §1

[13] = system: lambsquarters (Chenopodium album); settings: Chenopodium album, pre-emergence, 336 h, preemergence, scale 0 to 100, read-out: Plant response rating, Lambsquarters
Outline: as §1

Question: Which results are given for `N#Cc1cccc(Oc2ncc(Cl)cn2)c1Oc1ncc(Cl)cn1` [Compound 3, 2,3-bis[(5-chloro-2-pyrimidinyl)oxy]benzonitrile]?
Answer: plant injury at 31 g/ha ([1]; 31 g ai/ha): 5%; plant injury at 62 g/ha ([1]; 62 g ai/ha): 45%; plant injury at 125 g/ha ([1]; 125 g ai/ha): 90%; plant injury at 250 g/ha ([1]; 250 g ai/ha): 90%; pest or weed control at 31 g/ha ([2]; 31 g ai/ha): 90%; pest or weed control at 125 g/ha ([2]; 125 g ai/ha): 90%; pest or weed control at 250 g/ha ([2]; 250 g ai/ha): 100%; pest or weed control at 31 g/ha ([3]; 31 g ai/ha): 5%; pest or weed control at 62 g/ha ([3]; 62 g ai/ha): 35%; pest or weed control at 125 g/ha ([3]; 125 g ai/ha): 90%; pest or weed control at 250 g/ha ([3]; 250 g ai/ha): 90%; pest or weed control at 31 g/ha ([4]; 31 g ai/ha): 5%; pest or weed control at 62 g/ha ([4]; 62 g ai/ha): 15%; pest or weed control at 125 g/ha ([4]; 125 g ai/ha): 55%; plant injury at 31 g/ha (soybean (Glycine max); 31 g ai/ha): 40%; plant injury at 62 g/ha (soybean (Glycine max); 62 g ai/ha): 40%; plant injury at 125 g/ha (soybean (Glycine max); 125 g ai/ha): 85%; plant injury at 250 g/ha (soybean (Glycine max); 250 g ai/ha): 95%; pest or weed control at 31 g/ha ([5]; 31 g ai/ha): 70%; pest or weed control at 62 g/ha ([5]; 62 g ai/ha): 90%; pest or weed control at 125 g/ha ([5]; 125 g ai/ha): 90%; pest or weed control at 31 g/ha ([6]; 31 g ai/ha): 80%; pest or weed control at 62 g/ha ([6]; 62 g ai/ha): 100%; pest or weed control at 125 g/ha ([6]; 125 g ai/ha): 100%; pest or weed control at 250 g/ha ([6]; 250 g ai/ha): 100%; pest or weed control at 31 g/ha ([7]; 31 g ai/ha): 100%; pest or weed control at 62 g/ha ([7]; 62 g ai/ha): 100%; pest or weed control at 125 g/ha ([7]; 125 g ai/ha): 100%; pest or weed control at 31 g/ha ([8]; 31 g ai/ha): 90%; pest or weed control at 62 g/ha ([8]; 62 g ai/ha): 90%; pest or weed control at 125 g/ha ([8]; 125 g ai/ha): 90%; pest or weed control at 31 g/ha ([9]; 31 g ai/ha): 100%; pest or weed control at 62 g/ha ([9]; 62 g ai/ha): 100%; pest or weed control at 125 g/ha ([9]; 125 g ai/ha): 100%; plant injury at 31 g/ha ([10]; 31 g ai/ha): 90%; plant injury at 62 g/ha ([10]; 62 g ai/ha): 95%; plant injury at 125 g/ha ([10]; 125 g ai/ha): 95%; plant injury at 250 g/ha ([10]; 250 g ai/ha): 95%; pest or weed control at 31 g/ha ([11]; 31 g ai/ha): 80%; pest or weed control at 62 g/ha ([11]; 62 g ai/ha): 100%; pest or weed control at 125 g/ha ([11]; 125 g ai/ha): 100%; pest or weed control at 250 g/ha ([11]; 250 g ai/ha): 100%; Corn plant response rating (crop injury, 0 = no effect, 100 = complete kill) at 31 g/ha (corn (Zea mays); 31 g ai/ha): 20%; Corn plant response rating (crop injury, 0 = no effect, 100 = complete kill) at 62 g/ha (corn (Zea mays); 62 g ai/ha): 70%; Corn plant response rating (crop injury, 0 = no effect, 100 = complete kill) at 125 g/ha (corn (Zea mays); 125 g ai/ha): 85%; pest or weed control at 31 g/ha ([12]; 31 g ai/ha): 100%; pest or weed control at 62 g/ha ([12]; 62 g ai/ha): 100%; pest or weed control at 125 g/ha ([12]; 125 g ai/ha): 100%; pest or weed control at 250 g/ha ([12]; 250 g ai/ha): 100%; pest or weed control at 31 g/ha ([13]; 31 g ai/ha): 100%; pest or weed control at 62 g/ha ([13]; 62 g ai/ha): 100%; pest or weed control at 125 g/ha ([13]; 125 g ai/ha): 100%
